Measured values published in US10053431B2, “Tetrahydro-benzodiazepinones” (priority 2013, dated 2018).
Structures can show the parent of a compound that is named as a salt. Where two headings read alike, the source gives them in different places.

How the values were obtained:
BIR2 domain of XIAP = BIR2 domain of XIAP (Homo sapiens (Human), UniProt P98170, C202A/C213G); assay: TR-FRET assay for BIR2 (inhibition of binding of XIAP BIR2 domain to SMAC-derived Peptide A)
BIR3 domain of XIAP = BIR3 domain of XIAP (Homo sapiens (Human), UniProt P98170); assay: TR-FRET assay for BIR3 (inhibition of binding of XIAP BIR3 domain to SMAC-derived Peptide A); conditions: 6x His-tagged BIR3 domain (aa 241-356 of XIAP) 10 nM, Peptide A 20 nM, TR-FRET
BIR3 domain of XIAP, sequence (P98170 241-356 with tags or gaps limits assumed): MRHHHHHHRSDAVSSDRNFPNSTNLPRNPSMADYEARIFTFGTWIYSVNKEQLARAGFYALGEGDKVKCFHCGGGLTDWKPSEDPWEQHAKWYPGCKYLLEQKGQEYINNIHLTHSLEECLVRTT

[1] = 6x His-tagged BIR2 domain (aa 124-240 of XIAP) 10 nM, Peptide A 20 nM, TR-FRET, read-out: IC50 BIR2

BIR2 domain of XIAP, sequence (P98170 124-240 with tags or gaps C202A/C213G limits assumed): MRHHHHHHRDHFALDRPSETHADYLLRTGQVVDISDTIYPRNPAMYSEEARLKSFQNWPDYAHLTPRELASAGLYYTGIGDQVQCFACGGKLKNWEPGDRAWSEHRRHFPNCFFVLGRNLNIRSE

IC50 (BIR2 domain of XIAP; [1])	IC50 (BIR3 domain of XIAP)	Compound	IC50 (BIR2 domain of XIAP; IC50 BIR2)
0.0183 µM	> 54.8 µM	CN[C@@H](C)C(=O)N[C@H]1CN(C(=O)c2ccc(C(C)=O)cc2)c2cc(C#N)ccc2N(Cc2nn(-c3ccccc3C#N)c3ccccc23)C1=O [Example 162, (S)-N-((S)-5-(4-acetylbenzoyl)-7-cyano-1-((1-(2-cyanophenyl)-1H-indazol-3-yl)methyl)-2-oxo-2,3,4,5-tetrahydro-1H-benzo[b][1,4]diazepin-3-yl)-2-(methylamino)propanamide hydrochloride]	–
0.0853 µM	> 54.8 µM	CN[C@@H](C)C(=O)N[C@@H]1C(=O)N(CC(=O)Nc2c(F)cccc2F)c2ccccc2N(C(C)=O)[C@H]1C [Example 190, (S)-N-((2S,3S)-1-acetyl-5-(2-(2,6-difluorophenylamino)-2-oxoethyl)-2-methyl-4-oxo-2,3,4,5-tetrahydro-1H-benzo[b][1,4]diazepin-3-yl)-2-(methylamino)propanamide hydrochloride]	–
0.0148 µM	46.4 µM	CN[C@@H](C)C(=O)N[C@H]1CN(C(=O)c2ccc(N)cc2)c2cc(Cl)ccc2N(Cc2c(C)ccc3ccccc23)C1=O [Example 121, (S)-N-((S)-5-(4-aminobenzoyl)-7-chloro-1-((2-methylnaphthalen-1-yl)methyl)-2-oxo-2,3,4,5-tetrahydro-1H-benzo[b][1,4]diazepin-3-yl)-2-(methylamino)propanamide hydrochloride]	–
0.0172 µM	> 54.8 µM	CN[C@@H](C)C(=O)N[C@H]1CN2C(=O)CNC(=O)c3ccc4c(c(OC)ccc4c3)CN(C1=O)c1ccccc12 [Example 108, Cyclic-5-[(S)-5-(3-Amino-acetyl)-3-((S)-2-methylamino-propionylamino)-2-oxo-2,3,4,5-tetrahydro-benzo[b][1,4]diazepin-1-ylmethyl]-6-methoxy-naphthalene-2-carboxylic amide hydrochloride]	–
0.018 µM	16.5 µM	CN[C@@H](C)C(=O)N[C@H]1CN(C(=O)C2CCOCC2)c2cc(C#N)ccc2N(Cc2c(C3CC3)cnc3ccccc23)C1=O [Example 180, (S)-N-((S)-7-cyano-1-((3-cyclopropylquinolin-4-yl)methyl)-2-oxo-5-(telrahydro-2H-pyran-4-carbonyl)-2,3,4,5-tetrahydro-1H-benzo[b][1,4]diazepin-3-yl)-2-(methylamino)propanamide]	–
0.00511 µM	16.3 µM	CN[C@@H](C)C(=O)N[C@H]1CN(C(=O)c2ccc(C#N)cc2)c2cc(C#N)ccc2N(Cc2c(OC)ccc3c(Br)cccc23)C1=O [Example 143, (S)-N-((S)-1-((5-bromo-2-methoxynaphthalen-1-yl)methyl)-7-cyano-5-(4-cyanobenzoyl)-2-oxo-2,3,4,5-tetrahydro-1H-benzo[b][1,4]diazepin-3-yl)-2-(methylamino)propanamide hydrochloride]	–
0.503 µM	46.1 µM	CN[C@@H](C)C(=O)N[C@H]1CN(C(=O)c2ccc(C(C)=O)cc2)c2ccccc2N(CC(=O)Nc2cccc3ccccc23)C1=O [Example 105, (2S)-N-[(3S)-1-(4-acetylbenzoyl)-5-[2-(naphthalen-1-ylamino)-2-oxoethyl]-4-oxo-2,3-dihydro-1,5-benzodiazepin-3-yl]-2-(methylamino)propanamide;2,2,2-trifluoroacetic acid]	–
0.0376 µM	> 54.8 µM	CN[C@@H](C)C(=O)N[C@H]1CN(C(=O)CCOC)c2cc(C#N)ccc2N(Cc2nn(-c3ccccc3C#N)c3ccccc23)C1=O [Example 173, (S)-N-((S)-7-cyano-1-((1-(2-cyanophenyl)-1H-indazol-3-yl)methyl)-5-(3-methoxypropanoyl)-2-oxo-2,3,4,5-tetrahydro-1H-benzo[b][1,4]diazepin-3-yl)-2-(methylamino)propanamide hydrochloride]	–
0.295 µM	> 54.8 µM	COc1ccc2ccccc2c1CN1C(=O)C(NC(=O)[C@H](C)N)C(=O)N(CC23CC4CC(CC(C4)C2)C3)c2ccccc21 (stereo partly drawn) [Example 111, (2S)-N-[5-(1-adamantylmethyl)-1-[(2-methoxynaphthalen-1-yl)methyl]-2,4-dioxo-1,5-benzodiazepin-3-yl]-2-aminopropanamide]	–
0.0172 µM	21.5 µM	CN[C@@H](C)C(=O)N[C@H]1CN(C(=O)c2ccc(F)cc2)c2cc(Cl)ccc2N(Cc2c(OC)ccc3c(Br)cccc23)C1=O [Example 126, (S)-N-((S)-1-((5-bromo-2-methoxynaphthalen-1-yl)methyl)-7-chloro-5-(4-fluorobenzoyl)-2-oxo-2,3,4,5-tetrahydro-1H-benzo[b][1,4]diazepin-3-yl)-2-(methylamino)propanamide hydrochloride]	–

Further lines, the compound ahead of its results:

Compound	IC50 (BIR2 domain of XIAP; [1])	IC50 (BIR3 domain of XIAP)	IC50 (BIR2 domain of XIAP; IC50 BIR2)
CN[C@@H](C)C(=O)N[C@H]1CN(C(=O)c2ccc(C(C)(C)O)cc2)c2ccccc2N(Cc2c(OC)ccc3cc(Br)ccc23)C1=O [Example 95, (S)—N—{(S)-1-(6-Bromo-2-methoxy-naphthalen-1-ylmethyl)-5-[4-(1-hydroxy-1-methyl-ethyl)-benzoyl]-2-oxo-2,3,4,5-tetrahydro-1H-benzo[b][1,4]diazepin-3-yl}-2-methylamino-propionamide trifluoroacetate]	0.007 µM	36.3 µM	–
CC(=O)c1ccc(C(=O)N2C[C@H](NC(=O)[C@H](C)N)C(=O)N(Cc3noc4ccccc34)c3ccccc32)cc1 [Example 69k]	0.027 µM	> 54.8 µM	–
CC[C@H](NC)C(=O)N[C@H]1CN(C(=O)c2ccc(C(C)=O)cc2)c2ccccc2N(Cc2c(OC)ccc3cc(Br)ccc23)C1=O [Example 79, (S)—N—((S)-5-(4-Acetylbenzoyl)-1-((6-bromo-2-methoxynaphthalen-1-yl)methyl)-2-oxo-2,3,4,5-tetrahydro-1H-benzo[b][1,4]diazepin-3-yl)-2-(methylamino)butanamide hydrochloride]	0.001 µM	3.48 µM	–
CN[C@@H](C)C(=O)N[C@H]1CN(C(=O)c2ccc(S(C)(=O)=O)cc2)c2ccccc2N(Cc2c(C)ccc3ccccc23)C1=O [Example 13c]	0.119 µM	> 54.8 µM	–
CN[C@@H](C)C(=O)N[C@H]1CN(C(=O)CC2CCCCC2)c2ccccc2N(Cc2c(C)ccc3ccccc23)C1=O [Example 96e]	0.685 µM	> 54.8 µM	–
CN[C@@H](C)C(=O)N[C@H]1CN(C(=O)c2ccc(N)cc2)c2ccccc2N(Cc2c(OC)ccc3cc(C(=O)O)ccc23)C1=O [Example 57, 5-(((S)-5-(4-aminobenzoyl)-3-((S)-2-(methylamino)propanamido)-2-oxo-2,3,4,5-tetrahydro-1H-benzo[b][1,4]diazepin-1-yl)methyl)-6-methoxy-2-naphthoic acid hydrochloride]	0.007 µM	20.8 µM	–
CN[C@@H](C)C(=O)N[C@H]1CN(S(=O)(=O)CS(C)(=O)=O)c2ccccc2N(Cc2c(C)ccc3ccccc23)C1=O [Example 18, (S)—N—[(S)-5-Methanesulfonylmethanesulfonyl-1-(2-methyl-naphthalen-1-ylmethyl)-2-oxo-2,3,4,5-tetrahydro-1H-benzo[b][1,4]diazepin-3-yl]-2-methylamino-propionamide trifluoroacetate]	0.59 µM	> 54.8 µM	–
CN[C@@H](C)C(=O)N[C@H]1CN(C(=O)c2ccc(C)cc2)c2ccccc2N(Cc2c(OC)ccc3c(Br)cccc23)C1=O [Example 93, (S)—N—[(S)-1-(5-Bromo-2-methoxy-naphthalen-1-ylmethyl)-5-(4-methyl-benzoyl)-2-oxo-2,3,4,5-tetrahydro-1H-benzo[b][1,4]diazepin-3-yl]-2-methylamino-propionamide hydrochloride]	0.018 µM	47.6 µM	–
CN[C@@H](C)C(=O)N[C@H]1CN(C(=O)c2ccc(C(=O)O)cc2)c2ccccc2N(Cc2c(C)ccc3ccccc23)C1=O [Example 97, 4-[(S)-3-((S)-2-Methylamino-propionylamino)-5-(2-methyl-naphthalen-1-ylmethyl)-4-oxo-2,3,4,5-tetrahydro-benzo[b][1,4]diazepine-1-carbonyl]-benzoic acid hydrochloride]	0.1 µM	> 54.8 µM	–
CC[C@H](NC)C(=O)NC1C(=O)N(Cc2c(C)ccc3ccccc23)c2ccccc2N(c2ccccc2)C1=O (stereo partly drawn) [Example 115, (2S)-2-(methylamino)-N-(1-((2-methylnaphthalen-1-yl)methyl)-2,4-dioxo-5-phenyl-2,3,4,5-tetrahydro-1H-benzo[b][1,4]diazcpin-3-yl)butanamide]	–	> 54.8 µM	0.0687 µM
CN[C@@H](C)C(=O)N[C@H]1CN(S(=O)(=O)c2ccccc2)c2ccccc2N(Cc2c(C)ccc3ccccc23)C1=O [Example 98e]	0.133 µM	31.6 µM	–
CN[C@@H](C)C(=O)N[C@H]1CN2CCNC(=O)c3ccc4c(c(OC)ccc4c3)CN(C1=O)c1ccccc12 [Example 59, Cyclic-5-[(S)-5-(2-Amino-ethyl)-3-((S)-2-methylamino-propionylamino)-2-oxo-2,3,4,5-tetrahydro-benzo[b][1,4]diazepin-1-ylmethyl]-6-methoxy-naphthalene-2-carboxylic amide hydrochloride]	3.78 µM	31.4 µM	–
CN[C@@H](C)C(=O)N[C@H]1CN(C(=O)c2ccc(C#N)cc2)c2ccccc2N(Cc2c(C)ccc3ccccc23)C1=O [Example 96d]	0.046 µM	> 54.8 µM	–
CN[C@@H](C)C(=O)N[C@H]1CN(S(=O)(=O)N(C)C)c2ccccc2N(Cc2c(C)ccc3ccccc23)C1=O [Example 100, (S)—N—[(S)-5-Dimethylsulfamoyl-1-(2-methyl-naphthalen-1-ylmethyl)-2-oxo-2,3,4,5-tetrahydro-1H-benzo[b][1,4]diazepin-3-yl]-2-methylamino-propionamide hydrochloride]	0.249 µM	> 54.8 µM	–
CN[C@@H](C)C(=O)N[C@H]1CN(C(=O)c2cc(OC)c(OC)c(OC)c2)c2ccccc2N(Cc2c(C)ccc3ccccc23)C1=O [Example 13g]	0.481 µM	> 54.8 µM	–
